# Experimental data: ChEMBL document CHEMBL5154761, “Design, synthesis, and evaluation of 9-(pyrimidin-2-yl)-9H-carbazole derivatives disrupting mitochondrial homeostasis in human lung adenocarcinoma” (Eur J Med Chem, 2022)
# Calls of active or inactive are those of the source. The calls are words filed in the database; no cut-off is given here.
# Key:
# A549 [1] = assay: Induction of cell cycle arrest in human A549 cells assessed as accumulation at G2/M phase at 10 uM incubated for 48 hrs by PI staining based flow cytometry analysis; type: functional
# A549 [2] = assay: Cytotoxicity against human A549 cells assessed as cell growth inhibition at 10 uM incubated for 48 hrs by MTT assay relative to control; type: functional
# A549 [3] = assay: Cytotoxicity against human A549 cells assessed as cell growth inhibition incubated for 48 hrs by MTT assay; type: functional, cell-based; settings: A549, 48 h
# A549 [4] = assay: Induction of apoptosis in human A549 cells assessed as increase in P53 protein expression at 0.5 to 1 uM measured after 48 hrs by Western blot assay; type: functional, cell-based; settings: dose 0.5-1 µM
# A549 [5] = assay: Induction of apoptosis in human A549 cells assessed as early apoptotic cells at 1 uM incubated for 48 hrs by Annexin V-FITC/propidium iodide staining based flow cytometry analysis (reference value: 1.46%); type: functional
# A549 [6] = assay: Induction of morphological changes in human A549 cells assessed as swollen microstructure of mitochondria by transmission electron microscopy; type: functional, cell-based
# A549 [7] = assay: Induction of apoptosis in human A549 cells assessed as increase in Bax protein expression at 0.5 to 1 uM measured after 48 hrs by Western blot assay; type: functional, cell-based; settings: dose 0.5-1 µM
# A549 [8] = assay: Induction of cell cycle arrest in human A549 cells assessed as accumulation at S phase at 0.5 uM incubated for 48 hrs by PI staining based flow cytometry analysis (reference value: 12.85%); type: functional
# A549 [9] = assay: Induction of morphological changes in human A549 cells assessed as vacuolated microstructure of mitochondria by transmission electron microscopy; type: functional, cell-based
# A549 [10] = assay: Induction of apoptosis in human A549 cells assessed as early apoptotic cells at 0.5 uM incubated for 48 hrs by Annexin V-FITC/propidium iodide staining based flow cytometry analysis (reference value: 1.46%); type: functional
# A549 [11] = assay: Inhibition of colony formation in human A549 cells at 2 uM incubated for 48 hrs followed by culture medium replacement for every 72 hrs and measured after 14 days by crystal violet staining based analysis relative to control; type: functional; design: scale not given: the % may be the effect or the level left; settings: time 14 day
# A549 [12] = assay: Inhibition of mitochondrial respiration in human A549 cells assessed as decrease in maximal respiration at 2 uM in presence of oligomycin/FCCP/antimycin A /rotenone measured upto 75 mins by seahorse XFe24 flux analyzer; type: functional, cell-based
# A549 [13] = assay: Induction of cell cycle arrest in human A549 cells assessed as accumulation at S phase at 1 uM incubated for 48 hrs by PI staining based flow cytometry analysis (reference value: 12.85%); type: functional
# A549 [14] = assay: Induction of cell cycle arrest in human A549 cells assessed as accumulation at G2/M phase incubated for 48 hrs by PI staining based flow cytometry analysis; type: functional; settings: dose <= 1.0 µM, DDE = dose-dependent effect
# A549 [15] = assay: Induction of apoptosis in human A549 cells assessed as increase in cleaved caspase 7 protein expression at 0.5 to 1 uM measured after 48 hrs by Western blot assay; type: functional, cell-based; settings: dose 0.5-1 µM
# A549 [16] = assay: Inhibition of colony formation in human A549 cells incubated for 48 hrs followed by culture medium replacement for every 72 hrs and measured after 7 days by crystal violet staining based analysis; type: functional, cell-based; settings: dose 1-2 µM, time 7.0 day, DDE = dose-dependent effect
# A549 [17] = assay: Induction of cell cycle arrest in human A549 cells assessed as accumulation at G2/M phase at 1 uM incubated for 48 hrs by PI staining based flow cytometry analysis (reference value: 18.14); type: functional
# A549 [18] = assay: Induction of apoptosis in human A549 cells assessed as rate of apoptotic cells at 0.5 to 1 uM incubated for 48 hrs by Annexin V-FITC/propidium iodide staining based flow cytometry analysis (reference value: 2.7 %); type: functional; settings: dose 0.5-1 µM
# A549 [19] = assay: Induction of cell cycle arrest in human A549 cells assessed as increase in cyclin B1 expression upto 1 uM incubated for 48 hrs by Western blot analysis; type: functional, cell-based
# A549 [20] = assay: Induction of apoptosis in human A549 cells assessed as late apoptotic cells at 1 uM incubated for 48 hrs by Annexin V-FITC/propidium iodide staining based flow cytometry analysis (reference value: 1.00%); type: functional
# A549 [21] = assay: Induction of apoptosis in human A549 cells assessed as necrotic cells at 1 uM incubated for 48 hrs by Annexin V-FITC/propidium iodide staining based flow cytometry analysis (reference value: 0.30%); type: functional
# A549 [22] = assay: Antitumor activity against human A549 cells xenografted in BALB/c nude mouse assessed as reduction in tumor size at 2 mg/kg, ip administered once daily for 14 days and measured every day (reference value: 2100 mm3); type: functional; settings: time 14 day
# A549 [23] = assay: Induction of apoptosis in human A549 cells assessed as late apoptotic cells at 0.5 uM incubated for 48 hrs by Annexin V-FITC/propidium iodide staining based flow cytometry analysis (reference value: 1.00%); type: functional
# A549 [24] = assay: Antiproliferative activity against human A549 cells at >1.35 uM incubated for 48 hrs by RTCA analysis; type: functional, cell-based
# A549 [25] = assay: Induction of apoptosis in human A549 cells assessed as increase in cleaved caspase 3 protein expression at 0.5 to 1 uM measured after 48 hrs by Western blot assay; type: functional, cell-based; settings: dose 0.5-1 µM
# A549 [26] = assay: Induction of apoptosis in human A549 cells assessed as increase in cleaved PARP protein expression at 0.5 to 1 uM measured after 48 hrs by Western blot assay; type: functional, cell-based; settings: dose 0.5-1 µM
# A549 [27] = assay: Inhibition of mitochondrial respiration in human A549 cells assessed as decrease in spare capacity at 2 uM in presence of oligomycin/FCCP/antimycin A /rotenone measured upto 75 mins by seahorse XFe24 flux analyzer; type: functional, cell-based
# [28] = Toxicity in BALB/c mouse xenografted with human A549 cells assessed as effect on body weight at 0.4 to 2 mg/kg, ip administered once daily for 14 days and measured every day; type: organism-based; settings: in vivo, 336 h, dose 0.4-2 mg/kg, time 14 day
# A549 [29] = assay: Induction of apoptosis in human A549 cells assessed as viable cells at 0.5 uM incubated for 48 hrs by Annexin V-FITC/propidium iodide staining based flow cytometry analysis (reference value: 97.3%); type: functional; settings: read-out: Activity
# A549 [30] = assay: Induction of DNA damage in human A549 cells assessed as upregulation of gamma H2AX incubated for 48 hrs by Western blot analysis; type: functional, cell-based; settings: dose <= 1.0 µM, DDE = dose-dependent effect
# A549 [31] = assay: Induction of cell cycle arrest in human A549 cells assessed as accumulation at Go/G1 phase at 0.5 uM incubated for 48 hrs by PI staining based flow cytometry analysis (reference value: 62.45); type: functional
# NRK-52E = assay: Antiproliferative activity against rat NRK-52E cells at upto 10.75 uM incubated for 48 hrs by RTCA analysis; type: toxicity, cell-based
# A549 [32] = assay: Induction of apoptosis in human A549 cells assessed as upregulation of caspase 9 protein expression at 0.5 to 1 uM measured after 48 hrs by Western blot assay; type: functional, cell-based; settings: dose 0.5-1 µM
# A549 [33] = assay: Inhibition of mitochondrial membrane potential in human A549 cells by JC-1 staining based confocal microscopy; type: functional, cell-based; settings: dose 1.0 µM, DDE = dose-dependent effect
# A549 [34] = assay: Induction of apoptosis in human A549 cells assessed as decrease in Bcl-2 protein expression at 0.5 to 1 uM measured after 48 hrs by Western blot assay; type: functional, cell-based; settings: dose 0.5-1 µM
# A549 [35] = assay: Induction of cell cycle arrest in human A549 cells assessed as accumulation at Go/G1 phase at 1 uM incubated for 48 hrs by PI staining based flow cytometry analysis (reference value: 62.45); type: functional
# A549 [36] = assay: Antitumor activity against human A549 cells xenografted in BALB/c nude mouse assessed as necrotic cells at 2 mg/kg, ip administered once daily for 14 days by H and E staining; type: functional, organism-based; settings: time 14.0 day
# A549 [37] = assay: Induction of mitochondrial membrane potential loss in human A549 cells assessed as reduction in ATP levels at 1 to 2 uM incubated for 12 hrs in presence of oligomycin/FCCP/antimycin A /rotenone by seahorse XFe24 flux analyzer; type: functional, cell-based; settings: dose 1-2 µM
# A549 [38] = assay: Inhibition of mitochondrial respiration in human A549 cells assessed as reduction in respiratory control ratio by seahorse XFe24 flux analyzer; type: functional, cell-based; settings: dose 0.5-2 µM, DDE = dose-dependent effect
# A549 [39] = assay: Induction of apoptosis in human A549 cells assessed as necrotic cells at 0.5 uM incubated for 48 hrs by Annexin V-FITC/propidium iodide staining based flow cytometry analysis (reference value: 0.30%); type: functional
# A549 [40] = assay: Induction of apoptosis in human A549 cells assessed as viable cells at 1 uM incubated for 48 hrs by Annexin V-FITC/propidium iodide staining based flow cytometry analysis (reference value: 97.3%); type: functional; settings: read-out: Activity
# A549 [41] = assay: Induction of apoptosis in human A549 cells assessed as increase in PARP protein expression at 0.5 to 1 uM measured after 48 hrs by Western blot assay; type: functional, cell-based; settings: dose 0.5-1 µM
# A549 [42] = assay: Induction of apoptosis in human A549 cells assessed as increase in caspase 3 protein expression at 0.5 to 1 uM measured after 48 hrs by Western blot assay; type: functional, cell-based; settings: dose 0.5-1 µM
# [43] = Antiproliferative activity against rat NRK-52E cells assessed as cell growth inhibition incubated for 48 hrs by MTT assay; type: toxicity, cell-based
# A549 [44] = assay: Inhibition of mitochondrial membrane potential in human A549 cells by JC-1 staining based high-content screening method; type: functional, cell-based; settings: dose 0.5-2 µM, DDE = dose-dependent effect
# A549 [45] = assay: Induction of apoptosis in human A549 cells assessed as decrease in caspase 7 protein expression at 0.5 to 1 uM measured after 48 hrs by Western blot assay; type: functional, cell-based; settings: dose 0.5-1 µM
# A549 [46] = assay: Induction of cell cycle arrest in human A549 cells assessed as decrease in cyclin D1 expression upto 1 uM incubated for 48 hrs by Western blot analysis; type: functional, cell-based
# A549 [47] = assay: Inhibition of mitochondrial respiration in human A549 cells assessed as decrease in proton leak at 2 uM in presence of oligomycin/FCCP/antimycin A/rotenone measured upto 75 mins by seahorse XFe24 flux analyzer; type: functional, cell-based
# A549 [48] = assay: Induction of cell cycle arrest in human A549 cells assessed as accumulation at G2/M phase at 0.5 uM incubated for 48 hrs by PI staining based flow cytometry analysis (reference value: 18.14); type: functional
# A549 [49] = assay: Inhibition of mitochondrial respiration in human A549 cells assessed as decrease in basal respiration at 2 uM in presence of oligomycin/FCCP/antimycin A /rotenone measured upto 75 mins by seahorse XFe24 flux analyzer; type: functional, cell-based
structure (smiles),measurement,setting,value
COc1cccc(C(=O)c2cccc3c4ccccc4n(-c4ncccn4)c23)c1,Activity,A549 [1],Active
same,inhibition at 10 µM,A549 [2],50%
same,IC50,A549 [3],2.39 µM
N#Cc1cccc(C(=O)c2cccc3c4ccccc4n(-c4ncccn4)c23)c1,inhibition at 10 µM,A549 [2],< 50%
same,IC50,A549 [3],13.7 µM
COc1ccc(C(=O)c2cccc3c4ccccc4n(-c4ncccn4)c23)cc1OC,Activity,A549 [1],Active
same,inhibition at 10 µM,A549 [2],50%
same,IC50,A549 [3],3.1 µM
O=C(c1ccc2c(c1)OCO2)c1cccc2c3ccccc3n(-c3ncccn3)c12,Activity,A549 [4],Active
same,Activity,A549 [5],12.3%
same,Activity,A549 [6],Active
same,Activity,A549 [7],Active
same,Activity,A549 [8],13.84%
same,Activity,A549 [9],Active
same,Activity,A549 [10],2.71%
same,Activity,A549 [11],69%
same,inhibition,A549 [12],Active
same,Activity,A549 [13],14.11%
same,Activity,A549 [14],Dde
same,Activity,A549 [15],Active
same,inhibition,A549 [16],Dde
same,Activity,A549 [17],65.62%
same,Activity,A549 [18],21.1%
same,Activity,A549 [19],Active
same,Activity,A549 [20],6.98%
same,Activity,A549 [21],1.8%
same,Activity,A549 [1],Active
same,Activity,A549 [22],1255 mm3
same,Activity,A549 [23],2.17%
same,Activity,A549 [24],Active
same,Activity,A549 [25],Active
same,Activity,A549 [26],Active
same,inhibition,A549 [27],Active
same,Activity,[28],Non-Toxic
same,viability at 0.5 µM,A549 [29],93.4%
same,inhibition at 10 µM,A549 [2],78.6%
same,Activity,A549 [30],Dde
same,Activity,A549 [31],59.84%
same,Activity,NRK-52E,Non-Toxic
same,Activity,A549 [32],Active
same,inhibition,A549 [33],Dde
same,Activity,A549 [34],Active
same,Activity,A549 [35],29.76%
same,Activity,A549 [36],Active
same,Activity,A549 [37],Active
same,inhibition,A549 [38],Dde
same,Activity,A549 [39],1.74%
same,viability at 1 µM,A549 [40],78.9%
same,IC50,A549 [3],0.82 µM
same,Activity,A549 [41],Active
same,Activity,A549 [42],Active
same,IC50 at 48 h,[43],1.25 µM
same,inhibition,A549 [44],Dde
same,Activity,A549 [45],Active
same,Activity,A549 [46],Active
same,inhibition,A549 [47],Active
same,Activity,A549 [48],23.16%
same,inhibition,A549 [49],Active
O=C(OCc1ccccc1)c1cccc2c3ccccc3n(-c3ncccn3)c12,Activity,A549 [1],Active
same,IC50,A549 [3],5.23 µM
O=C(c1ccc(Br)cc1)c1cccc2c3ccccc3n(-c3ncccn3)c12,Activity,A549 [1],Active
same,inhibition at 10 µM,A549 [2],50%
same,IC50,A549 [3],7.5 µM
